We go through six compounds from ChEMBL document CHEMBL1240344, “Phage-encoded combinatorial chemical libraries based on bicyclic peptides” (Nat Chem Biol, 2009).

Residues, ends and D or L forms follow the SMILES beside them.

The target of test [1] is Angiotensin-converting enzyme 2 (Homo sapiens, UniProt Q9BYF1). The experiment in a line: Binding affinity to angiotensin converting enzyme 2.
For test [2], the target named is Coagulation factor VII/tissue factor (Homo sapiens, UniProt P08709). The test can be described thus: Binding affinity to tissue factor/factor 7a. In kind it is protein-complex assay.
The target of test [3] is Receptor tyrosine-protein kinase erbB-2 (Homo sapiens, UniProt P04626). The experiment in a line: Binding affinity to ErbB-2.
Test [4] is described as follows: Binding affinity to beta-lactamase.
Test [5] addresses T1, Deoxyribonuclease-2-alpha (Homo sapiens, UniProt O00115).
T1 sequence (O00115 whole entry): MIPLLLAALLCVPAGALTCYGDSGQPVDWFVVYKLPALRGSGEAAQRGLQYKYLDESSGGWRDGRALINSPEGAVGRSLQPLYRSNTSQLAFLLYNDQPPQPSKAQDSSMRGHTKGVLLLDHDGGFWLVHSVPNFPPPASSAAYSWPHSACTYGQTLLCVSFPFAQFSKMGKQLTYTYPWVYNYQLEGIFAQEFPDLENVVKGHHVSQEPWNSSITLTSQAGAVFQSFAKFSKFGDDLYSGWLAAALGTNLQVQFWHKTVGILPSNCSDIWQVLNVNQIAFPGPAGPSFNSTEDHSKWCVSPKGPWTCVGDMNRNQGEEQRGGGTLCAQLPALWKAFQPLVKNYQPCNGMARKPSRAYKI
The test can be described thus: Binding affinity to Dnase 2.

Test [6] in a line: Binding affinity to urease.

Receptor tyrosine-protein kinase erbB-2, sequence (P04626 whole entry): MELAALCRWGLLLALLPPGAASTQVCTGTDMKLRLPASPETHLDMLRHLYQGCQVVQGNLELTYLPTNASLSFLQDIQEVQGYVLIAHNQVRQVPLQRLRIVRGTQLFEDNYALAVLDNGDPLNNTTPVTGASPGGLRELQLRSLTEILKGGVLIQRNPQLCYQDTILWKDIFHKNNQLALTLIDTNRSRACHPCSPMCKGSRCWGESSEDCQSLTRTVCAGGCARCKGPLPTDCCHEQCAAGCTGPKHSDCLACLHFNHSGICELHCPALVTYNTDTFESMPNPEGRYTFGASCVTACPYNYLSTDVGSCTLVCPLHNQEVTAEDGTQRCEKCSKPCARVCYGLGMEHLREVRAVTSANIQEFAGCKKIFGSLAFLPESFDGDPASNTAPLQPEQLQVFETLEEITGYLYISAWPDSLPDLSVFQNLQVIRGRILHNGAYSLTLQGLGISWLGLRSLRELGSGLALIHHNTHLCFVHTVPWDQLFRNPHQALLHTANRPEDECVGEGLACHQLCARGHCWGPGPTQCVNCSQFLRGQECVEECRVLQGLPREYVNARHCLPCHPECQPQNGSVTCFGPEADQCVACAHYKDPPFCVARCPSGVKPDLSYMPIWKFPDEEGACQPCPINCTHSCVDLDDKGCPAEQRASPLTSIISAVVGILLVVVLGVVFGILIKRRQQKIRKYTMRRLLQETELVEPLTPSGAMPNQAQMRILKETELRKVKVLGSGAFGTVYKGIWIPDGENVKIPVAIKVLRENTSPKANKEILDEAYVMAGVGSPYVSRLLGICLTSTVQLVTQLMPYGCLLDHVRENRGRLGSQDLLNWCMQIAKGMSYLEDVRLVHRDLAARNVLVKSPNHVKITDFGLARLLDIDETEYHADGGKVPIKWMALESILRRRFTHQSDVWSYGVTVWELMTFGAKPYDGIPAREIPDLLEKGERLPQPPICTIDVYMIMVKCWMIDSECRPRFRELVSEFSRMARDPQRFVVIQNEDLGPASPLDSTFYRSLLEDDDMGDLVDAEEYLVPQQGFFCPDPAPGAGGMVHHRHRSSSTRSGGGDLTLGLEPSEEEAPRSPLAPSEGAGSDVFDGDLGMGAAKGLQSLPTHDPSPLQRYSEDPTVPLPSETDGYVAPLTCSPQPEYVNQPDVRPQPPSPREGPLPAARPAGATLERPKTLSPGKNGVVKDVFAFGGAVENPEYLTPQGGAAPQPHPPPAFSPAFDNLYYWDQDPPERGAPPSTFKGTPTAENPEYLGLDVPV
Angiotensin-converting enzyme 2, sequence (Q9BYF1 whole entry): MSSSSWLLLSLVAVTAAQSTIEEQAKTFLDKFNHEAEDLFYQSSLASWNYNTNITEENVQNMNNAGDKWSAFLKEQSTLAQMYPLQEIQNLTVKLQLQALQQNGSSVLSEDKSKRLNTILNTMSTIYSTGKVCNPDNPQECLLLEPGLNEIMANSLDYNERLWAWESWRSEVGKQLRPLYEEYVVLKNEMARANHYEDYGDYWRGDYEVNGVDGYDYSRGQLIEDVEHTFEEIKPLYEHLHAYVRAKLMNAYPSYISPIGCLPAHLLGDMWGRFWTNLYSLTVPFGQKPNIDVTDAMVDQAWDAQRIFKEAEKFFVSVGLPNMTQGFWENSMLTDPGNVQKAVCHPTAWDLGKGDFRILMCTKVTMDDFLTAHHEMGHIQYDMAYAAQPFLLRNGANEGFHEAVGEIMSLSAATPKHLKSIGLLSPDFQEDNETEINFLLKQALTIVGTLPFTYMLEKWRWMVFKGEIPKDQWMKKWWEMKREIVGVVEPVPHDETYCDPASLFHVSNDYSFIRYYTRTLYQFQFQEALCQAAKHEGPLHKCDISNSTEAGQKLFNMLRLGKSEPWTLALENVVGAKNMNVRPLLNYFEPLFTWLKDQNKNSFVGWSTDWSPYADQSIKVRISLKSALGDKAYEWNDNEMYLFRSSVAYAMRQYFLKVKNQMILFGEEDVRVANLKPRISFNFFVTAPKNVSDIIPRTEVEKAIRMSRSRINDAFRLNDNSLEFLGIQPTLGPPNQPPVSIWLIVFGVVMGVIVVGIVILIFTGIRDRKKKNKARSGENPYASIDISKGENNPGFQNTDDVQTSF
Coagulation factor VII/tissue factor, sequence (P08709 61-212 limits assumed): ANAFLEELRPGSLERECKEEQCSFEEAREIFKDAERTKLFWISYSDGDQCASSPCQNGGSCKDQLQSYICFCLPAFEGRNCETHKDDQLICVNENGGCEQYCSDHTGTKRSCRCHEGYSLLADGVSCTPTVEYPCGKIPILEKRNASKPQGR
Coagulation factor VII/tissue factor, sequence (P08709 213-466 limits assumed): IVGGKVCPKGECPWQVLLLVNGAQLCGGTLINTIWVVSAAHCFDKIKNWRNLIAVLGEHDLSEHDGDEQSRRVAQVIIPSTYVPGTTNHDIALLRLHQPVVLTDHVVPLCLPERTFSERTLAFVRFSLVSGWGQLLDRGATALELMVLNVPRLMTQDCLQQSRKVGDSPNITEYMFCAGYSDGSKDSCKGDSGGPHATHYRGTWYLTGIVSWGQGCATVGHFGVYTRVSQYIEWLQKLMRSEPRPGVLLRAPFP
Coagulation factor VII/tissue factor, sequence (P13726 33-295 partner limits assumed): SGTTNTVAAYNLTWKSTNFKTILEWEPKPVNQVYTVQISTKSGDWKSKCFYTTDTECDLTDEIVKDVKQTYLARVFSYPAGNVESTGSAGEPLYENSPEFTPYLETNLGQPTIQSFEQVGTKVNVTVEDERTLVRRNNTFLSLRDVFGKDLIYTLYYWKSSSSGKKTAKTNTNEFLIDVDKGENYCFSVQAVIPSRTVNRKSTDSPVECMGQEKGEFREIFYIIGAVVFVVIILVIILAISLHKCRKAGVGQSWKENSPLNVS

Regarding `CC(C)C[C@H](NC(=O)[C@@H]1CCCN1C(=O)[C@H](CO)NC(=O)[C@H](CS)NC(=O)[C@H](Cc1cnc[nH]1)NC(=O)[C@H](CO)NC(=O)[C@H](Cc1ccc(O)cc1)NC(=O)[C@@H](CC(=O)O)NC(=O)CN)C(=O)N[C@@H](CCCNC(=N)N)C(=O)N[C@@H](Cc1ccc(O)cc1)C(=O)N[C@@H](Cc1ccc(O)cc1)C(=O)N1CCC[C@H]1C(=O)N[C@@H](Cc1c[nH]c2ccccc12)C(=O)N[C@@H](Cc1c[nH]c2ccccc12)C(=O)N[C@@H](CCCCN)C(=O)N[C@@H](CS)C(=O)N[C@H](C(=O)N[C@@H](Cc1ccc(O)cc1)C(=O)N1CCC[C@H]1C(=O)N[C@@H](CC(=O)O)C(=O)N1CCC[C@H]1C(=O)O)[C@@H](C)O`, the Ki (as a rule, the equilibrium dissociation constant of an inhibitor or competing ligand from its target) in test [1] was 0.0028 µM.
For `CC(C)C[C@H](NC(=O)[C@@H](NC(=O)[C@H](CCC(=O)O)NC(=O)[C@H](Cc1c[nH]c2ccccc12)NC(=O)[C@H](CCC(=O)O)NC(=O)[C@@H](N)CCC(=O)O)C(C)C)C(=O)N[C@@H](CS)C(=O)N[C@@H](Cc1c[nH]c2ccccc12)C(=O)N[C@H](C(=O)N[C@@H](Cc1c[nH]c2ccccc12)C(=O)N[C@@H](CCC(=O)O)C(=O)N[C@H](C(=O)N[C@@H](CS)C(=O)N[C@@H](CCC(=O)O)C(=O)N[C@@H](CCCN=C(N)N)C(=O)O)[C@@H](C)O)[C@@H](C)O` (H-EEWEVLCWTWETCER-OH), in test [2], the IC50 (as a rule, the concentration that inhibits the measured activity by half) came out at 0.0015 µM.
In turn, `CC(C)C[C@H](NC(=O)[C@H](CO)NC(=O)[C@H](Cc1ccc(O)cc1)NC(=O)[C@H](CS)NC(=O)[C@H](CS)NC(=O)[C@@H](N)CCCCN)C(=O)O` (H-KCCYSL-OH) displayed an inhibition constant (Ki) in test [3] of 30 µM.
Regarding `CC(C)[C@H](NC(=O)[C@@H](N)CS)C(=O)N[C@@H](Cc1cnc[nH]1)C(=O)N[C@@H](CO)C(=O)N1CCC[C@H]1C(=O)N[C@@H](CC(N)=O)C(=O)N[C@@H](CCCNC(=N)N)C(=O)N[C@@H](CCC(=O)O)C(=O)N[C@@H](CS)C(=O)O` (H-CVHSPNREC-OH), the concentration for half-maximal inhibition (IC50) in test [4] is 9 µM.
For the compound `CC(C)C[C@H](NC(=O)[C@H](Cc1ccccc1)NC(=O)[C@H](Cc1c[nH]c2ccccc12)NC(=O)[C@H](CCC(N)=O)NC(=O)[C@H](CC(C)C)NC(=O)[C@H](CC(C)C)NC(=O)[C@H](CCCN=C(N)N)NC(=O)[C@H](CC(C)C)NC(=O)[C@@H](N)CS)C(=O)N[C@@H](Cc1c[nH]c2ccccc12)C(=O)N[C@@H](C)C(=O)N[C@@H](CS)C(=O)O` (H-CLRLLQWFLWAC-OH), in test [5], the Ki came out at 0.2 µM.
In turn, H-YDFYWW-OH showed an IC50 in test [6] of 30 µM.
